Data: US6066642A, “Dihydropyridine-, pyridine-, benzopyran-4-one- and triazoloquinazoline derivative, their preparation and their use as adenosine receptor antagonists” (priority 1998, dated 2000)
Where two headings read alike, the source gives them in different places. One block for each compound: values may come before it.

Legend:
A2a receptors = molecular target: T1, A2a receptors (Rattus norvegicus, UniProt P30543); assay: radioligand binding, displacement of specific [3H]CGS 21680 binding in rat striatal membranes; settings: for inhibition at 100 µM: 10^-4 M
T1 construct: Displacement of specific [^3 H]; from tissue; host or cells: rat striatal membranes
Protocol: ^b Displacement of specific [^3 H]
or as a percentage of specific binding displaced at 100 μM.

A1 receptors = molecular target: T2, A1 receptors (Rattus norvegicus, UniProt P25099); assay: biochemical; format: binding
T2 sequence (P25099 1-326): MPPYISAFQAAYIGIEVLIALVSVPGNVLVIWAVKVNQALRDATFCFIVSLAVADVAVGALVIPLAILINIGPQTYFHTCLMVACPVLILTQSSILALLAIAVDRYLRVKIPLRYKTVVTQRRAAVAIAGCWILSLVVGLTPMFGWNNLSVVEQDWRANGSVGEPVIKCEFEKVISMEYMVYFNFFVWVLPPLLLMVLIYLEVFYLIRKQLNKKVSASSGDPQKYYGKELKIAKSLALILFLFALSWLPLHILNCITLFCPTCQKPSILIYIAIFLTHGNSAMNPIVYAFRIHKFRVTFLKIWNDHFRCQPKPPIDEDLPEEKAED
Protocol: ^a Displacement of specific [^3 H] PIA binding in rat brain
percentage of specific binding displaced at 100 μM.

human A3 receptors = molecular target: T3, human A3 receptors (Homo sapiens, UniProt P0DMS8); assay: radioligand binding, displacement of specific [125I]AB-MECA binding at human A3 receptors expressed in HEK-293 cells; settings: for inhibition at 10 µM: 10^-5 M; for Ki: [125I]AB-MECA; for inhibition at 100 µM: 10^-4 M
T3 construct: expressed in transfected cells; host or cells: HEK-293 cells (membranes)
T3 sequence (P0DMS8 1-318): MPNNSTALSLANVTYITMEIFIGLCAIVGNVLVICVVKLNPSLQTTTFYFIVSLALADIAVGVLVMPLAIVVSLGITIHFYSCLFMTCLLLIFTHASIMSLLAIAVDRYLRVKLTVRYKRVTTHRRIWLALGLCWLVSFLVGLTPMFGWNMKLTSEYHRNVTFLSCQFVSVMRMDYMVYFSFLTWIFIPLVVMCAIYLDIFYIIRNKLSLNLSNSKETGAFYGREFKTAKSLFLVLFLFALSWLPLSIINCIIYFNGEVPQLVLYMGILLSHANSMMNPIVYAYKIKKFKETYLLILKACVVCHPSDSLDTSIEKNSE
Protocol: A3 receptors expressed in HEK293 cells, in membranes, expressed as
binding displaced at 100 μM.

[1] = Table 6, read-out: % inhibition hA3
[2] = Table 6, HEK-293 membranes, read-out: K2 (hA3)
[3] = Table 6, [3H]PIA, rat brain membranes, read-out: K2 (rA1)
[4] = Table 6, [3H]CGS 21680, rat striatal membranes, read-out: K2 (rA2a)
[5] = Table 7, [3H]CGS 21680, rat striatal membranes, read-out: Ki (rA2A)
[6] = Table 7, [3H]PIA, rat brain membranes, read-out: Ki (rA1)
[7] = Table 7, read-out: % of specific binding displaced hA3
[8] = Table 16, HEK membranes, read-out: Ki hA3

T1 sequence (P30543 whole entry): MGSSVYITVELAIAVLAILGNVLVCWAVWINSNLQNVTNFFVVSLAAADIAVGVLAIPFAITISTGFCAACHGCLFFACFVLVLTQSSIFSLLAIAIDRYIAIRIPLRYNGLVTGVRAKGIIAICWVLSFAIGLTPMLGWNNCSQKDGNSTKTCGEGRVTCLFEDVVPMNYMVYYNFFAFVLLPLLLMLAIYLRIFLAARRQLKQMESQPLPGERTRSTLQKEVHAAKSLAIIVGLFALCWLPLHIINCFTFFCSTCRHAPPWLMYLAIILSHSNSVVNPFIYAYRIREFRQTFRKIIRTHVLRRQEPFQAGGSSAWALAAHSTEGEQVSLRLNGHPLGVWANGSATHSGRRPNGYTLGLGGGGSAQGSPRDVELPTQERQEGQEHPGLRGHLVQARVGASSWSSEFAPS

SMILES: COc1ccc(-c2cc(=O)c3c(OC)c(OC)c(OC)cc3o2)cc1 [Compound 31, reference compound]
Ki (A1 receptors; brain membranes, read-out: K2 (rA1)): 1.29 ± 0.08 µM | Ki (human A3 receptors; [2]): 4.48 ± 0.14 µM

SMILES: COc1c(O)cc2oc(-c3ccc(O)cc3)cc(=O)c2c1O [Compound 32, hispidulin, reference compound]
Ki (A2a receptors; striatal membranes, read-out: K2 (rA2a)): 6.48 ± 0.65 µM | Ki (A1 receptors; [3]): 1.61 ± 0.29 µM | inhibition at 10 µM (human A3 receptors; [1]): 63 ± 2%

SMILES: CC(=O)Oc1cc(OC(C)=O)c2c(=O)c(OC(C)=O)c(-c3ccccc3)oc2c1 [Compound 34, 3,5,7-triacetoxyflavone]
Ki (A2a receptors; [4]): 56.5 ± 9.5 µM | Ki (A1 receptors; [3]): 11.6 ± 4.4 µM | Ki (human A3 receptors; [2]): 17.5 ± 2 µM

SMILES: COc1ccc(-c2oc3cc(OC)cc(OC)c3c(=O)c2OC)cc1 [Compound 35, 3,4',5,7-tetramethoxyflavone]
Ki (A1 receptors; [3]): 1.07 µM | Ki (human A3 receptors; [2]): 3.37 ± 1.83 µM

SMILES: O=c1cc(-c2ccccc2)oc2c1ccc1ccccc12 [Compound 43, α-naphthoflavone, reference compound]
Ki (A2a receptors; [5]): 1.32 ± 0.43 µM | Ki (A1 receptors; [6]): 0.786 µM | inhibition at 10 µM (human A3 receptors; [7]): 71 ± 2%

SMILES: CCn1c2c(c3cc4c(cc3c1=O)OCO4)C(=O)CCC2 [Compound 46, reference compound]
Ki (A2a receptors; [5]): 6.98 ± 2.21 µM | Ki (A1 receptors; [6]): 7.59 ± 2.14 µM | inhibition at 100 µM (human A3 receptors; [7]): 19 ± 3%

SMILES: COC(=O)C1=C(C)NC(C)=C(C(=O)OCCCN2CCC(c3ccccc3)(c3ccccc3)CC2)C1c1cccc([N+](=O)[O-])c1 (stereo not drawn) [Compound 65, reference compound]
greater affinity to A1 than A2a adenosine receptors (A1 receptors): greater affinity to A1 adenosine receptors than A2a receptors | greater affinity for A3 than A1 or A2a adenosine receptors (human A3 receptors): greater affinity for A3 adenosine receptors than A1 or A2a adenosine receptors

SMILES: COc1ccc(-c2ccncc2)cc1 [Compound 83]
Ki (A2a receptors; Table 10, [3H]CGS 21680, rat striatal membranes, read-out: Ki rA2a): 71 ± 29 µM | inhibition at 100 µM (human A3 receptors; Table 10, read-out: displacement of specific binding hA3): < 10%

The next lines start with results.

inhibition at 100 µM (A2a receptors; Table 6, read-out: displacement of specific binding rA2a): < 10% | inhibition at 100 µM (A1 receptors; Table 6, 10^-4 M, read-out: displacement of specific binding rA1): < 10% | inhibition at 10 µM (human A3 receptors; [1]): 69 ± 7%
SMILES: COc1ccc(-c2cc(=O)c3c(O)cc(OC)cc3o2)cc1 [Compound 30, reference compound]

Ki (A2a receptors; [4]): 3 ± 0.7 µM | Ki (A1 receptors; [3]): 1.2 µM | Ki (human A3 receptors; [2]): 1.72 µM
SMILES: COc1cc2oc(-c3ccc(O)cc3)cc(=O)c2c(O)c1OC [Compound 33, cirsimaritin, reference compound]

Ki (A2a receptors; [4]): 46.7 ± 2.7 µM | Ki (A1 receptors; [3]): 27.6 ± 7.5 µM | Ki (human A3 receptors; [2]): 2.65 µM
SMILES: COc1ccc(-c2oc3cc(OC)cc(OC)c3c(=O)c2OC)c(OC)c1 [Compound 38, 2',3,4',5,7-pentamethyloxyflavone]

inhibition at 1 µM (A1 receptors; Table 6, 10^-6 M, read-out: displacement of specific binding rA1): < 10% | Ki (human A3 receptors; [2]): 16.2 ± 2.2 µM
SMILES: COc1cc(OC)c2c(=O)c(OC)c(-c3cc(OC)c(OC)c(OC)c3)oc2c1 [Compound 39, hexamethylmyricetin]

inhibition at 100 µM (A2a receptors; Table 7, read-out: displacement of specific binding rA2A): < 10% | Ki (A1 receptors; [6]): 8.8 ± 3.6 µM | inhibition at 10 µM (human A3 receptors; [7]): 12 ± 1%
SMILES: O=c1cc(-c2ccccc2)oc2ccc3ccccc3c12 [Compound 44, β-naphthoflavone, reference compound]

Ki (A1 receptors; Table 9, [3H]PIA, rat brain membranes, read-out: Ki rA1): 20.1 µM | Ki (human A3 receptors; Table 9, HEK membranes, read-out: Ki hA3): 8.47 µM
SMILES: COCCOC(=O)C1=C(C)NC(C)=C(C(=O)OC(C)C)C1c1cccc([N+](=O)[O-])c1 (stereo not drawn) [Compound 64, reference compound]
greater affinity to A1 than A2a adenosine receptors (A1 receptors; selectivity in words): greater affinity to A1 adenosine receptors than A2a receptors | greater affinity for A3 than A1 or A2a adenosine receptors (human A3 receptors; selectivity in words): greater affinity for A3 adenosine receptors than A1 or A2a adenosine receptors

Ki (A2a receptors; read-out: Ki rA2A): 0.0283 ± 0.0103 µM | Ki (human A3 receptors; [8]): 0.0297 ± 0.0077 µM
SMILES: O=C(CCc1ccccc1)Nc1nc2ccc(Cl)cc2c2nc(-c3ccco3)nn12 [Compound 160]

Ki (A1 receptors; Table 16, [3H]R-PIA, rat brain membranes, read-out: Ki rA1): 0.028 µM | Ki (human A3 receptors; [8]): 0.0087 ± 0.00097 µM
SMILES: O=C(Cc1ccc([N+](=O)[O-])cc1)Nc1nc2ccc(Cl)cc2c2nc(-c3ccco3)nn12 [Compound 162]
